{
  "source": "paper PMC12390655",
  "about": "(Viruses, 2025)",
  "key": {"[1]": {"biological_target": "monopartite NLS peptide (mpNLS) from the SV40 large T antigen (SV40)", "assay": "fluorescence polarisation"}, "[2]": {"biological_target": "eVP24–KPNA5-ΔIBB complex (Homo sapiens, UniProt O15131)", "assay": "biochemical", "assay_type": "binding, Human KPNA5; Ebola VP24"}},
  "note": "Ends that are not written are not given here.",
  "data": [
    {"substance": "Human KPNA5 aa 66–508 (KPNA5-ΔIBB) (domain or fragment)", "values": [
      {"measurement": "Kd", "setting": "[1]", "value": 5.3, "unit": "µM"}
    ]},
    {"substance": "KRPAATKKAGQAKKKK [bpNLS]", "values": [
      {"measurement": "Kd", "setting": "[2]", "value": 0.21, "unit": "µM"}
    ]},
    {"substance": "STPPKKKRKVE [mpNLS]", "values": [
      {"measurement": "Kd", "setting": "[2]", "value": 5.2, "unit": "µM"}
    ]}
  ]
}
